According to ChEMBL document CHEMBL3879896:

tested on: not listed separately; test: Cytotoxicity against human kidney cells; type: cell-based; details: not given

Q: With `CCCC(=O)C1(c2ccccc2)CCN(C(=O)c2ccc3[nH]ccc3c2)CC1` as the molecule, how does the Activity read?
A: The Activity was 23 to 48 µM.

Q: For `O=C(c1ccc2[nH]ccc2c1)N1CCN(C2c3ccccc3-c3ccccc32)CC1`, which Activity is on record?
A: Its Activity is 35 to 44 µM.

Q: With `CC(C)=CCC/C(C)=C/CNC(=O)CCc1c[nH]c2ccccc12` as the molecule, how does the Activity read?
A: The Activity was 41 to 62 µM.

tested on: not listed separately; test: Cytotoxicity against human lung cells; type: cell-based; details: not given

Q: With `CCCC(=O)C1(c2ccccc2)CCN(C(=O)c2ccc3[nH]ccc3c2)CC1` as the molecule, how does the Activity read?
A: The Activity was 33 to 50 µM.

Q: With `O=C(c1ccc2[nH]ccc2c1)N1CCN(C2c3ccccc3-c3ccccc32)CC1` as the molecule, how does the Activity read?
A: The Activity was 24 to 48 µM.

Q: Which Activity does the source give for `CC(C)=CCC/C(C)=C/CNC(=O)CCc1c[nH]c2ccccc12` here?
A: The Activity was 11 to 48 µM.

target: T1, Enoyl-[acyl-carrier-protein] reductase [NADH] (Mycobacterium tuberculosis) (UniProt P9WGR1); test: Inhibition of Mycobacterium tuberculosis InhA using octenoyl-CoA as substrate assessed as decrease in NADH consumption at 40 uM measured for 10 mins relative to control; details: not given
T1 sequence (whole entry): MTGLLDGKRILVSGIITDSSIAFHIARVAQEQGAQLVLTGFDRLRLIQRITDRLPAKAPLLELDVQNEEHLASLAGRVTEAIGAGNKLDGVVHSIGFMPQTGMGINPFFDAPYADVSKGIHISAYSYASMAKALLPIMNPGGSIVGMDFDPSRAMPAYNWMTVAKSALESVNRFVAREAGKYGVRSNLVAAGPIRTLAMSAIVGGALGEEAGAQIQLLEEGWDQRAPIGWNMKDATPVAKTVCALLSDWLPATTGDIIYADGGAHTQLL

Q: With `O=C(c1ccc2[nH]ccc2c1)N1CCN(c2ccc(F)cc2)CC1` as the molecule, how does the inhibition read?
A: The inhibition was 53%.

Q: With `CC(C)C1C2CCC(NC(=O)CCc3c[nH]c4ccccc34)C1C2` (stereo unspecified) as the molecule, how does the inhibition read?
A: Its inhibition is 28%.

Q: Which inhibition does the source give for `O=C(CCCc1c[nH]c2ccccc12)NCc1ccc2c(c1)OCO2` here?
A: Its inhibition is 37%.

Q: Which inhibition does the source give for `COc1ccc(-c2cnn(-c3nccc(C(F)(F)F)n3)c2)cc1` here?
A: Its inhibition is 4%.

Q: Which inhibition does the source give for `O=C(Cc1ccccc1F)NCCC(c1ccccc1)c1ccccc1` here?
A: The inhibition was 63%.

Q: Which inhibition does the source give for `O=C(c1ccc(-c2ccccc2)cc1)N1CCN(Cc2ccccc2)CC1` here?
A: The inhibition was 27%.

Q: For `COc1ccc(CCNC(=O)Cc2ccccc2F)cc1`, which inhibition is on record?
A: The inhibition was 63%.

Q: With `O=C(c1ccc2[nH]ccc2c1)N1CCN(C(c2ccccc2)c2ccccc2)CC1` as the molecule, how does the inhibition read?
A: Its inhibition is 106%.

Q: Which inhibition does the source give for `O=C(c1ccc(-c2ccccc2)cc1)N1CCc2ccccc2C1` here?
A: The inhibition was 27%.

Q: Which inhibition does the source give for `O=C(CCCc1c[nH]c2ccccc12)Nc1ccc(N2CCCC2)cc1` here?
A: Its inhibition is 28%.

Q: For `FC(F)(F)c1ccnc(-n2cc(-c3ccnc4ccccc34)cn2)n1`, which inhibition is on record?
A: The inhibition was 9%.

Q: With `CC(C)=CCC/C(C)=C/CNC(=O)CCCc1c[nH]c2ccccc12` as the molecule, how does the inhibition read?
A: Its inhibition is 51%.

Q: Which inhibition does the source give for `O=[N+]([O-])c1ccccc1-c1cnn(-c2nccc(C(F)(F)F)n2)c1` here?
A: Its inhibition is 14%.

Q: With `FC(F)(F)c1ccnc(-n2cc(-c3ccc4ccccc4n3)cn2)n1` as the molecule, how does the inhibition read?
A: The inhibition was 16%.

Q: For `Cc1c(C)c(C)c(C(=O)C2CCN(C(=O)c3ccc4[nH]ccc4c3)CC2)c(C)c1C`, which inhibition is on record?
A: Its inhibition is 78%.

Q: Which inhibition does the source give for `O=C(c1ccc2[nH]ccc2c1)N1CCc2ccccc2C1` here?
A: Its inhibition is 86%.

Q: With `COc1ccccc1N1CCN(C(=O)c2ccc3[nH]ccc3c2)CC1` as the molecule, how does the inhibition read?
A: Its inhibition is 78%.

Q: Which inhibition does the source give for `O=C(c1ccc(F)cc1)C1CCN(C(=O)c2ccc3[nH]ccc3c2)CC1` here?
A: The inhibition was 84%.

Q: Which inhibition does the source give for `O=C(c1ccc2[nH]ccc2c1)N1CCN(c2ccccc2)CC1` here?
A: The inhibition was 73%.

Q: Which inhibition does the source give for `CS(=O)(=O)c1ccc(-c2cnn(-c3nccc(C(F)(F)F)n3)c2)c([N+](=O)[O-])c1` here?
A: Its inhibition is 10%.

Q: Which inhibition does the source give for `FC(F)(F)c1ccnc(-n2cc(-c3ccncn3)cn2)n1` here?
A: The inhibition was 36%.

Q: For `FC(F)(F)c1ccnc(-n2cc(-c3cnc4ccccc4n3)cn2)n1`, which inhibition is on record?
A: Its inhibition is 36%.

Q: With `CC1CN(C(=O)c2ccc3[nH]ccc3c2)CC(C)O1` (stereo unspecified) as the molecule, how does the inhibition read?
A: The inhibition was 47%.

Q: Which inhibition does the source give for `O=C(c1ccc2[nH]ccc2c1)N1CCN(Cc2ccccc2)CC1` here?
A: The inhibition was 62%.

Q: For `CN(Cc1ccccc1)C(=O)c1ccc(-c2ccccc2)cc1`, which inhibition is on record?
A: The inhibition was 44%.

Q: Which inhibition does the source give for `CN(Cc1ccco1)C(=O)c1ccc(-c2ccccc2)cc1` here?
A: Its inhibition is 29%.

Q: With `O=C(Cc1ccccc1F)NCCc1ccccc1` as the molecule, how does the inhibition read?
A: Its inhibition is 45%.

Q: With `O=C(Cc1ccccc1F)NCCc1c[nH]c2ccccc12` as the molecule, how does the inhibition read?
A: The inhibition was 47%.

Q: For `CN(CCc1ccccc1)C(=O)c1ccc(-c2ccccc2)cc1`, which inhibition is on record?
A: The inhibition was 32%.

Q: Which inhibition does the source give for `FC(F)(F)c1ccnc(-n2cc(-c3ccc(Cl)cc3)cn2)n1` here?
A: Its inhibition is 8%.

Q: Which inhibition does the source give for `COc1ccc([N+](=O)[O-])c(-c2cnn(-c3nccc(C(F)(F)F)n3)c2)c1` here?
A: Its inhibition is 17%.

Q: Which inhibition does the source give for `FC(F)(F)c1ccnc(-n2cc(-c3nc4ccccc4[nH]3)cn2)n1` here?
A: The inhibition was 36%.

Q: For `COc1cc(CCNC(=O)CCCc2c[nH]c3ccccc23)cc(OC)c1`, which inhibition is on record?
A: Its inhibition is 21%.

Q: Which inhibition does the source give for `FC(F)(F)c1ccnc(-n2cc(-c3cccnc3)cn2)n1` here?
A: The inhibition was 36%.

Q: With `O=C(c1cccnc1)c1ccc2[nH]ccc2c1` as the molecule, how does the inhibition read?
A: The inhibition was 36%.

Q: With `O=C(Cc1ccccc1F)NCCO` as the molecule, how does the inhibition read?
A: Its inhibition is 34%.

Q: With `O=[N+]([O-])c1cc(Cl)ccc1-c1cnn(-c2nccc(C(F)(F)F)n2)c1` as the molecule, how does the inhibition read?
A: Its inhibition is 82%.

Q: With `O=C(c1ccc2[nH]ccc2c1)N1CCN(Cc2ccc3c(c2)OCO3)CC1` as the molecule, how does the inhibition read?
A: Its inhibition is 51%.

Q: With `CC(C)=CCC/C(C)=C/CNC(=O)CCc1c[nH]c2ccccc12` as the molecule, how does the inhibition read?
A: Its inhibition is 73%.

Q: Which inhibition does the source give for `O=C(Cc1ccccc1F)NCCC1=CCCCC1` here?
A: Its inhibition is 56%.

Q: For `COc1cc2c(cc1OC)CN(C(=O)c1ccc3[nH]ccc3c1)CC2`, which inhibition is on record?
A: Its inhibition is 86%.

Q: For `CC(C)C1C2CCC(NC(=O)CCCc3c[nH]c4ccccc34)C1C2` (stereo unspecified), which inhibition is on record?
A: The inhibition was 34%.

Q: With `FC(F)(F)c1ccnc(-n2cc(-c3cnccn3)cn2)n1` as the molecule, how does the inhibition read?
A: Its inhibition is 9%.

Q: Which inhibition does the source give for `O=C(Nc1ccc2ccccc2n1)c1ccc2[nH]ccc2c1` here?
A: Its inhibition is 16%.

Q: With `O=C(Cc1ccccc1F)NCc1cccc(Cl)c1` as the molecule, how does the inhibition read?
A: Its inhibition is 75%.

Q: With `O=C(Cc1ccccc1F)NCCc1cccc(Cl)c1` as the molecule, how does the inhibition read?
A: The inhibition was 84%.

Q: For `O=C(c1ccc2[nH]ccc2c1)N1CCN(c2ccccn2)CC1`, which inhibition is on record?
A: The inhibition was 36%.

tested on: not listed separately; test: Cytotoxicity against mouse embryonic stem cells; type: cell-based; details: embryonic stem cell

Q: Which Activity does the source give for `CCCC(=O)C1(c2ccccc2)CCN(C(=O)c2ccc3[nH]ccc3c2)CC1` here?
A: The Activity was 46 to 50 µM.

Q: With `O=C(c1ccc2[nH]ccc2c1)N1CCN(C2c3ccccc3-c3ccccc32)CC1` as the molecule, how does the Activity read?
A: The Activity was 46 to 52 µM.

Q: For `CC(C)=CCC/C(C)=C/CNC(=O)CCc1c[nH]c2ccccc12`, which Activity is on record?
A: Its Activity is 11 to 90 µM.
